From US6969593B2, “Method for the selective survival or selective growth of a target cell by the use of a conjugate, its use in therapeutics and/or diagnostics and the preparation of said conjugate” (priority 2000, dated 2005)

Tests used:
Format in all cases: cell-based, Escherichia coli
MM294-pET26b45 [1] = experiment: Experiments with selective cultures: mixed culture, colonies counted on Kan dishes; details: t = 2 hours, complex + or − according to label
Procedure: (§1) 5 ml (OD=1) of the TG1-fd Bla I7 and the MM294-pET26b45 cultures are centrifuged (4000 RPM, 5 minutes) and twice washed in LB for finally being resolved in 5 ml sterile LB. Two cultures are mixed. 1 ml of this culture is diluted in 9 ml LB (5 erlenmeyers in parallell) and the necessary quantity of the ternary complex or the conjugate is added. During one hour at 37° C. incubation takes place whereafter penicilline is introduced in this culture medium (see table above) and agitation is performed during two hours at 37° C.
(§2) Sampling is made at the start and the finish of the reaction which is diluted and put on Tet or Kan boxes. The incubation takes place all night at 37° C. Calculation of the colonies is made the morning after.
(§3) Mixtures have been made of bacteria TG1-fd Bla […] and MM294-pET26b45. These mixtures have been brought into contact with the ternary complex and incubated during one hour by 37° C. to allow the triple complex to be formed on the bacteria. After this incubation penicillin is added in the culture medium and cultures grown in shaking suspensions for two hours at 37° C. Subsequently, these mixtures were plated on Tet dishes and Kan dishes and incubated overnight at 37° C. The next day, the number of colonies was counted.
(§4) The inventors have also been working on the optimisation of the initial number added in the test of the different bacteria.

TG1-fd Bla I7 [2] = experiment: Spectrophotometric follow up of the cultures (optical density at 600 nm); details: 200 and 800 mg.L^−1 of penicillin; with or without ternary complex according to label; 37° C.
Procedure: (§5) Cultures (15 ml, OD=1) of TG1-fd Bla I7 and of MM294-pET26b45 are centrifuged (4000 RPM, 5 minutes). The pellet is washed twice with LB and is resolved in 15 ml sterile LB. In all cases 1 ml of the culture is diluted in 9 ml LB (11 erlenmeyers). Then the necessary quantity of the triple complexes calculated for complete degradation of the penicillin in two hours incubation is added and inbucated one hour at 37° C. Then penicillin is introduced at the final concentrations as indicated in the table below and for two hours at 37° C.
(§6) A sample is made at the start and then every 30 minutes. The optical density is measured of the sample at 600 nm.
(§7) In the next step, the applicant determined the conditions where optimal measurements could be made. With the help of spectrophotometric techniques the evolution in the optical density of different cultures was followed. […]
(§8) These cultures were made in parallel with an increasing concentration of penicillin increasing in the culture medium from 0 mg.L^−1, 50 mg.L^−1, 100 mg.L^−1, 200 mg.L^−1, 400 mg.L^−1 to 800 mg.L^−1. The quantities of the ternary complex were calculated and adapted such that all the penicillin in the medium of culture were hydrolyzed in two hours. […]

MM294-pET26b45 [3] = experiment: as above; details: 200 and 800 mg.L^−1 of penicillin; with or without triple complex according to label; 37° C.
Procedure: as §5, §6, §7, §8

TG1-fd Bla I7 [4] = experiment: Experiments with selective cultures: mixed culture, colonies counted on Tet dishes; details: t = 2 hours; for Bacteria.ml^−1 TG1-fd Bla 17 / % TG1-fd Bla 17: Table 1 results 1; for Bacteria.ml^−1 TG1-fd Bla 17 / Bacteria.ml^−1 TG1-fd Bla I7: complex + or − according to label; for Bacteria.ml^−1 TG1-fd Bla 17: t=0 1.58E+06; for % TG1-fd Bla 17 / % TG1-fd Bla I7: mixture with MM294-pET26b45; for % TG1-fd Bla 17: t=0 20.8%
Procedure: as §1, §2, §3, §4

SMILES: CC1(C)S[C@@H]2[C@H](NC(=O)Cc3ccccc3)C(=O)N2[C@H]1C(=O)O [penicillin G]
- Bacteria.ml^−1 MM294-pET26b45 (MM294-pET26b45 [1]; Table 1 results 1, [Pen] 200 mg·L^−1, t=0 6.00E+06): 1 667 ppm
- Bacteria.ml^−1 MM294-pET26b45 (MM294-pET26b45 [1]; Table 1 results 1, [Pen] 800 mg·L^−1, t=0 6.00E+06): 557 ppm
- Bacteria.ml^−1 MM294-pET26b45 (MM294-pET26b45 [1]; Table 2 results 1, [Pen] 200 mg·L^−1, t=0 1.73E+07): 410.4 ppm
- Bacteria.ml^−1 MM294-pET26b45 (MM294-pET26b45 [1]; Table 2 results 1, [Pen] 800 mg·L^−1, t=0 1.73E+07): 659.0 ppm
- Bacteria.ml^−1 MM294-pET26b45 (MM294-pET26b45 [1]; Table 2 results 2, [Pen] 200 mg·L^−1, t=0 9.00E+07): 82.2 ppm
- Bacteria.ml^−1 MM294-pET26b45 (MM294-pET26b45 [1]; Table 2 results 2, [Pen] 800 mg·L^−1, t=0 9.00E+07): 60.0 ppm
- evolution of optical density of the culture during time (TG1-fd Bla I7 [2]): tendency to decrease
- evolution of optical density of the culture during time (MM294-pET26b45 [3]): tendency to decrease
- Bacteria.ml^−1 TG1-fd Bla 17 (TG1-fd Bla I7 [4]; [Pen] 200 mg·L^−1): 1 190 ppm
- % TG1-fd Bla 17 (TG1-fd Bla I7 [4]; [Pen] 200 mg·L^−1): 15.8%
- Bacteria.ml^−1 TG1-fd Bla 17 (TG1-fd Bla I7 [4]; [Pen] 800 mg·L^−1): 1 500 ppm
- % TG1-fd Bla 17 (TG1-fd Bla I7 [4]; [Pen] 800 mg·L^−1): 8.9%
- Bacteria.ml^−1 TG1-fd Bla I7 (TG1-fd Bla I7 [4]; Table 2 results 1, [Pen] 200 mg·L^−1, t=0 2.05E+07): 351.2 ppm
- % TG1-fd Bla I7 (TG1-fd Bla I7 [4]; Table 2 results 1, [Pen] 200 mg·L^−1, t=0 54.2%): 50.3%
- Bacteria.ml^−1 TG1-fd Bla I7 (TG1-fd Bla I7 [4]; Table 2 results 1, [Pen] 800 mg·L^−1, t=0 2.05E+07): 439.0 ppm
- % TG1-fd Bla I7 (TG1-fd Bla I7 [4]; Table 2 results 1, [Pen] 800 mg·L^−1, t=0 54.2%): 44.1%
- Bacteria.ml^−1 TG1-fd Bla I7 (TG1-fd Bla I7 [4]; Table 2 results 2, [Pen] 200 mg·L^−1, t=0 1.37E+08): 48.2 ppm
- % TG1-fd Bla I7 (TG1-fd Bla I7 [4]; Table 2 results 2, [Pen] 200 mg·L^−1, t=0 60.4%): 47.1%
- Bacteria.ml^−1 TG1-fd Bla I7 (TG1-fd Bla I7 [4]; Table 2 results 2, [Pen] 800 mg·L^−1, t=0 1.37E+08): 2.9 ppm
- % TG1-fd Bla I7 (TG1-fd Bla I7 [4]; Table 2 results 2, [Pen] 800 mg·L^−1, t=0 60.4%): 6.9%
